Assay results: ChEMBL document CHEMBL5543120, “Discovery of Novel 5,6-Dihydro-4H-pyrido[2,3,4-de]quinazoline Irreversible Inhibitors Targeting Both Wild-Type and A775_G776insYVMA Mutated HER2 Kinases” (J Med Chem, 2024)

Key:
in vivo [1] = settings: rat, po, 10 mg/kg
in vivo [2] = settings: rat, iv, 3 mg/kg
in vivo [3] = settings: rat, iv, 3 mg/kg; remark: listed apart in the source
in vivo [4] = settings: rat, iv, 3 mg/kg; remark: listed apart in the source
in vivo [5] = settings: rat, po, 10 mg/kg; remark: listed apart in the source
in vivo [6] = settings: rat, iv, 3 mg/kg; remark: listed apart in the source
in vivo [7] = settings: rat, po, 10 mg/kg; remark: listed apart in the source
in vivo [8] = settings: rat, po, 10 mg/kg; remark: listed apart in the source
in vivo [9] = settings: rat, po, 10 mg/kg; remark: listed apart in the source

AUC(0-t) (in vivo [1]) [µg·h/mL] | Vd (in vivo [2]) [L/kg] | half-life (in vivo [3]) [h] | clearance (in vivo [4]) [L/h/kg] | bioavailability (in vivo [5]) [%] | AUC(0-t) (in vivo [6]) [µg·h/mL] | Cmax (in vivo [7]) [µg/mL] | Tmax (in vivo [8]) [h] | half-life (in vivo [9]) [h] | Compound
0.157 | 17.8 | 4.88 | 4.48 | 7.43 | 0.667 | 0.0238 | 0.5 | 6.46 | CN1CCC[C@@H]1/C=C/C(=O)Nc1ccc2ncnc3c2c1CCN3c1ccc(OCc2ccccn2)c(Cl)c1
1.3 | 8.1 | 3.81 | 2.3 | 30.4 | 1.29 | 0.124 | 3.67 | 4.1 | CN(C)C/C=C/C(=O)Nc1ccc2ncnc(Nc3ccc(OCc4ccccn4)c(Cl)c3)c2c1-c1ccccc1
– | 5.01 | – | 1.25 | 18.2 | – | – | – | – | CCOc1cc2ncc(C#N)c(Nc3ccc(OCc4ccccn4)c(Cl)c3)c2cc1NC(=O)/C=C/CN(C)C [NERATINIB]
